Like-named read-outs stand apart in the source and are kept apart here.
Assays:
[1] = target: T1, ER-α (Homo sapiens, UniProt P03372); test: Estrogen receptor binding measurement (competition with [125I]-estradiol), ER-α; tables head the values "FP α-ER Ki"
T1 construct: made in house; host or cells: cell-free: TNT T7 Quick-Coupled rabbit reticulocyte lysate (Promega L1170)
T1 sequence (P03372 1-595): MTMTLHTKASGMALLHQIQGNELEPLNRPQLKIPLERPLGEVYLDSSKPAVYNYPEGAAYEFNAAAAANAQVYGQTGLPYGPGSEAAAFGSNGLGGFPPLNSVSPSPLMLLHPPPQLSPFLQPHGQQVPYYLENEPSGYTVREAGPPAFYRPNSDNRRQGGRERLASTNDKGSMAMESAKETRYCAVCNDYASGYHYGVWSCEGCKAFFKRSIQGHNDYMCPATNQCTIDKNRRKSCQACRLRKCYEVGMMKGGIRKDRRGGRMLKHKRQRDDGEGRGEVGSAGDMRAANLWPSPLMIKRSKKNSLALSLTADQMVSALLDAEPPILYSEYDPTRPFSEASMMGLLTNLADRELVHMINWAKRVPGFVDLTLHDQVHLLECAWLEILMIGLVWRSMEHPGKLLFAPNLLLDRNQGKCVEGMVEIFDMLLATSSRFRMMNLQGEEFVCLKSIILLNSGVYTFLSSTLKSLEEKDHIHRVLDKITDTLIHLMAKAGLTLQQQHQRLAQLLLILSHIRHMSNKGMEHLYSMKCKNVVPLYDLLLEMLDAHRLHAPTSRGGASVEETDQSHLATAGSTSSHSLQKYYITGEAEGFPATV
Description: (§1) Receptor protein was prepared by in vitro transcription and translation of these plasmids using the TNT T7 Quick-Coupled reticulocyte lysate system (Promega Cat.#L1170). […] Programmed lysate was then aliquotted and stored frozen at −80° C.
(§2) Compounds were tested in duplicate at half-log concentrations ranging from 10 pM to 3 μM. Compounds were prepared as 1 mM stocks in DMSO, then diluted in the binding-assay buffer (in mM: 20 HEPES, 150 NaCl, 1 EDTA, 6 monothioglycerol and 10 Na2MoO4,; 10% wt/vol glycerol, and pH=7.9) to a series of […] concentrated, 20 μL aliquots in a 96-well plate. Receptor aliquots were thawed on ice, and appropriately diluted (see below) in binding assay buffer. Diluted receptor (30 μL/each) was added to each well. […] Plates containing the final assay mixture were mixed on a shaker for 2 min and incubated overnight (˜16 h) at 4° C.
(§3) Receptor-bound and unbound radioligand was separated by filtration over sephadex columns. Columns (45 μL bed volume) were prepared by adding dry column media (Pharmacia Cat#G-25) to 96-well column templates (Millipore MultiScreen Plates Cat#MAHVN4510). Columns were then saturated with 300 μL of binding-assay buffer and stored at 4° C. Prior to use, stored columns were spun for 10 minutes at 2000 RPM, then washed twice with 200 μL of fresh binding buffer. The binding-assay mixtures (50 μL/each) were then applied to the columns, and an additional elution volume of 35 μL was immediately applied to the column. Receptor-bound radioligand was then eluted from the column by centrifugation for 10 minutes at 2000 RPM. A scintillation cocktail (145 μL) was added to the eluted radioligand/receptor complex, and radio-label was measured by liquid scintillation counting.
(§4) The volume of receptor-programmed reticulocyte lysate to be added to the binding assay was determined independently from two measurements made on each batch of receptor prepared. First, Kis were determined for standard compounds using a series of dilutions of the receptor preparation. Scatchard analysis of ligand binding affinity was performed at the receptor dilutions that produced reported Kis for these compounds and an acceptable signal:noise ratio (˜10).

[2] = target: T2, ER-β (Homo sapiens, UniProt Q92731); test: Estrogen receptor binding measurement (competition with [125I]-estradiol), ER-β; tables head the values "FP β-ER Ki"
T2 construct: made in house; host or cells: cell-free: TNT T7 Quick-Coupled rabbit reticulocyte lysate (Promega L1170)
Description: as §1, §2, §3, §4

[3] = target: ER; test: Scatchard analysis of ligand binding affinity on receptor preparations; conditions: Scatchard analysis at chosen receptor dilutions; receptor subtype not specified; read-out: KD for [125I]-estradiol
Description: as §4

T2 sequence (Q92731 54-530 limits assumed): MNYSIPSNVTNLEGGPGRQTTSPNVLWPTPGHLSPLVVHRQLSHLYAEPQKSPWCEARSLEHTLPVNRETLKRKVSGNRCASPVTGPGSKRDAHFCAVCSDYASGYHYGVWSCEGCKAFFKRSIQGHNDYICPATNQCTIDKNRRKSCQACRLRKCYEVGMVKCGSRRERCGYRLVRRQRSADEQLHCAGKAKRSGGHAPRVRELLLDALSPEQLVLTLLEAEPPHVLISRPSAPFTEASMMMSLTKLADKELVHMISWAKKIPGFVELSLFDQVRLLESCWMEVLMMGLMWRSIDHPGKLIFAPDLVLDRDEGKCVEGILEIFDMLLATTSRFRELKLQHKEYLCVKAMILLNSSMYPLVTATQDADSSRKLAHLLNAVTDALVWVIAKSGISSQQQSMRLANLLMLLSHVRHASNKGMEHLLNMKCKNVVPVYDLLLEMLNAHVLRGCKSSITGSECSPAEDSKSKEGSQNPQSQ

SMILES	Ki ([1]; read-out: FP α-ER Ki)	Selectivity ([2]; ER-α Ki / ER-β Ki)	Ki ([2]; read-out: FP β-ER Ki)	Ki ([1]; LOQ = 0.01 nM, upper limit 1000 nM, read-out: FP ER-α Ki)	FP Sel. Ratio ([2]; ER-α Ki / ER-β Ki)	Ki ([2]; LOQ = 0.01 nM, upper limit 1000 nM, read-out: FP ER-β Ki)	Kd [3]
O=c1c(-c2ccc(O)cc2)coc2cc(O)cc(Cl)c12 [Example 1, 5-Chloro-7-hydroxy-3-(4-hydroxyphenyl)-4-oxo-4H-1 benzopyran]	600 nM	139	4.3 nM				
O=c1c(-c2ccc(O)cc2Cl)coc2cc(O)cc(Cl)c12 [Example 2, 5-Chloro-3-(2-chloro-4-hydroxyphenyl)-7-hydroxy-4-oxo-4H-1-benzopyran]	300 nM	19	16 nM				
Cc1cc(O)ccc1-c1coc2cc(O)cc(Cl)c2c1=O [Example 3, 5-chloro-7-hydroxy-3-(4-hydroxy-2-methylphenyl)-4-oxo-4H-1-benzopyran]	900 nM	18	50 nM				
O=c1c(-c2ccc(O)cc2)coc2cc(O)cc(F)c12 [Example 4, 5-Fluoro-7-hydroxy-3-(4-hydroxyphenyl)-4-oxo-4H-1-benzopyran]	> 2200 nM	>56	39 nM				
C[C@]12CC[C@@H]3c4ccc(O)cc4CC[C@H]3[C@@H]1C[C@@H](I)[C@@H]2O [[^125I]-estradiol, [^125I]-16α-iodo-3,17β-estradiol]							0.1 to 1 nM

Now from value to compound, other results behind:

Ki ([1]; read-out: FP α-ER Ki)	Selectivity ([2]; ER-α Ki / ER-β Ki)	Ki ([2]; read-out: FP β-ER Ki)	Ki ([1]; LOQ = 0.01 nM, upper limit 1000 nM, read-out: FP ER-α Ki)	FP Sel. Ratio ([2]; ER-α Ki / ER-β Ki)	Ki ([2]; LOQ = 0.01 nM, upper limit 1000 nM, read-out: FP ER-β Ki)	SMILES	Kd [3]
251 nM	90	2.8 nM				O=c1c(-c2ccc(O)cc2)coc2cc(O)cc(Br)c12 [Example 5, 5-Bromo-7-hydroxy-3-(4-hydroxyphenyl)-4-oxo-4H-1-benzopyran]	
147 nM	38	3.9 nM				O=c1c(-c2ccc(O)cc2)coc2cc(O)cc(I)c12 [Example 6, 7-Hydroxy-3-(4-hydroxyphenyl)-5-iodo-4-oxo-4H-1-benzopyran]	
> 1000 nM	>39	58 nM				N#Cc1cc(O)cc2occ(-c3ccc(O)cc3)c(=O)c12 [Example 7, 5-Cyano-7-hydroxy-3-(4-hydroxyphenyl)-4-oxo-4H-1-benzopyran]	
563 nM	7	84 nM				CSc1cc(O)cc2occ(-c3ccc(O)cc3)c(=O)c12 [Example 8, 7-Hydroxy-3-(4-hydroxyphenyl)-5-methylthio-4-oxo-4H-1-benzopyran]	
62 nM	35	1.8 nM				O=c1oc2cc(O)cc(Cl)c2cc1-c1ccc(O)cc1 [Example 9, 5-Chloro-7-hydroxy-3-(4-hydroxyphenyl)coumarin]	
13 nM	6.4	2 nM				Oc1ccc(C2COc3cc(O)cc(Cl)c3C2)cc1 (stereo not shown) [Example 10, 5-Chloro-7-hydroxy-3-(4 hydroxyphenyl)chroman]	
			≥ 1000 nM	32.8	46.1 nM	Cc1oc2cc(O)cc(Cl)c2c(=O)c1-c1ccc(O)cc1 [Example 11]	

Reference: patent US7226945B2 (AstraZeneca AB, priority 2000, dated 2007)
